The values that follow are results of earlier work, collected in paper PMC7674238 (Accounts of chemical research, 2020).

A word on the AUC: it is concentration integrated over time. For orientation: Cmax means the maximum level reached in the sampled fluid or tissue. A word on the Vd: it is the apparent volume that relates the amount in the body to the concentration in plasma or blood.

One data set relates to D-Ala-D-Lac. To be noted: D-Ala-D-Lac vs D-Ala-D-Ala.
Data set [1] deals with VanA VRE. The note with it: vancomycin-resistant organisms.
Data set [2] has as its system vancomycin-resistant S. aureus (VRSA) strain VRS-2. To be noted: for dose-dependent bactericidal effect, rank order (relative to 2 h baseline): n=5/dose.
For data set [3], the system named is VanA VRE.
The conditions of data set [4]: mice, iv.
The conditions of data set [5]: mice.
Data set [6] has as its system VanA VRE. The note with it: 10 μM.

Where two headings read alike, the source gives them in different places.

On to `CN[C@H](CC(C)C)C(=O)N[C@H]1C(=O)N[C@@H](CC(N)=O)C(=O)N[C@H]2C(=O)N[C@H]3C(=O)N[C@H](C(=O)N[C@H](C(=O)O)c4cc(O)cc(O)c4-c4cc3ccc4O)[C@H](O)c3ccc(c(Cl)c3)Oc3cc2cc(c3O[C@@H]2O[C@H](CO)[C@@H](O)[C@H](O)[C@H]2O[C@H]2C[C@](C)(N)[C@H](O)[C@H](C)O2)Oc2ccc(cc2Cl)[C@H]1O` [compound 1, vancomycin], for which, in the data set with D-Ala-D-Lac, the “loss in binding affinity between vancomycin and its target” value is given as 1000 fold. Moreover, the “loss in antimicrobial activity (resistance)” value with VanA VRE [1] was 1000 fold. Further, the “dose-dependent bactericidal effect, rank order (relative to 2 h baseline)” value in data set [2] is given as 32 > 26 ≥ 16 > linezolid > 1.

Turning to `CN[C@H](CC(C)C)C(=O)N[C@H]1C(=O)N[C@@H](CC(N)=O)C(=O)N[C@H]2C(=O)NC3C(=O)N[C@H](C(=O)N[C@H](C(=O)NCCC[N+](C)(C)C)c4cc(O)cc(O)c4-c4cc3ccc4O)[C@H](O)c3ccc(c(Cl)c3)Oc3cc2cc(c3OC2OC(CO)C(O)[C@H](O)[C@@H]2O[C@H]2CC(C)(NCc3ccc(-c4ccc(Cl)cc4)cc3)[C@H](O)[C@H](C)O2)Oc2ccc(cc2Cl)[C@H]1O` (stereo partly shown) [compound 26, C1-CBP-vancomycin], the “resistance development on 50-day serial exposure” value with VanA VRE [3] is reported as “much more muted changes in potency”. Moreover, in data set [4] (10 mg/kg), the AUC is 81.1 µg·h/mL, the CL is 2 mL/min/kg, the Cmax is 14100 ng/mL and the Vd is 1.25 L/kg. For the same compound, the t1/2 in data set [4] (10 mg/kg) was 7.0 h. Besides, in data set [4] (50 mg/kg (MTD)), the AUC was 430 µg·h/mL, the CL is 2 mL/min/kg, the maximum concentration (Cmax) was 58900 ng/mL and the Vd was 1.04 L/kg. Further, in data set [4] (50 mg/kg (MTD)), the t1/2 is listed as 6.2 h. Moreover, the “reduction in bacteria count” value in data set [2] (VanA VRSA, VRS2, without dosing optimization) is approximately 3 log10. Moreover, the “Maximum tolerated dose (MTD)” value in data set [5] (iv) is not below 50 mg/kg. The “tolerability” value in data set [5] is “well tolerated in mice”. Further, the “induction of bacteria cell permeabilization” value with VanA VRE [6] is given as “more significant”.

For `CC(=O)NC[C@H]1CN(c2ccc(N3CCOCC3)c(F)c2)C(=O)O1` [linezolid], the “dose-dependent bactericidal effect, rank order (relative to 2 h baseline)” value in data set [2] is 32 > 26 ≥ 16 > linezolid > 1.
